This is an account of results in patent US7786112B2, “Inhibitors of cyclin-dependent kinases, compositions and uses related thereto” (Agennix USA Inc., priority 2003, dated 2010).

For experiment [1], the target named is protein kinase C (mixed isozymes from rat brain). In words: Protein kinase C assay (Histone H1, TCA precipitation). Format: biochemical. Particulars: Table 5; read-out: PKC IC50. The method, then: (§1) Enzymes: Cdc2/cyclin B was obtained from commercial sources. Cdk2/his-cyclin Eshort was expressed in Sf9 cells. Cdk2/cyclin A, cdk4/cyclin D1, and cdk6/cyclin D2 were expressed in Sf9 cells. Protein kinase A (catalytic subunit, from bovine heart) and protein kinase C (mixed isozymes from rat brain) were obtained from commercial sources.
Protein kinase C and protein kinase A were assayed using a TCA precipitation assay with Histone H1 as a substrate. For protein kinase A, the final assay contained 50 mM Tris, 10 mM MgCl2, 1 mM dithiothreitol, pH 7.5, 12 μM adenosine triphosphate, 10% (v/v) dimethylsulfoxide (from compounds), 20 μg Histone H1, 2 μCi [γ-^32P] adenosine triphosphate, 0.2 U protein kinase A in a 100 μL assay. A protein kinase C assay contained 50 mM Tris, 10 mM MgCl2, 1 mM dithiothreitol, 0.8 mM CaCl2, pH 7.5, 5 μM adenosine triphosphate, 10% (v/v) dimethylsulfoxide (from compounds), 20 μg Histone H1, 2 μCi [γ-^32P] adenosine triphosphate, 0.01 U protein kinase C in a 50 μL assay. The assays were started by the addition of enzyme, allowed to react for 10 min at 30° C., and stopped by adding 0.4 volumes of 237 mM disodium ethylenediamine tetraacetate, 105 mM adenosine triphosphate, pH 8.0. […] The filters were washed ten times with 25% (w/v) trichloroacetic acid, and the amount of incorporated [^32P]phosphate was determined by adding 100 μl Microscint and scintillation counting.

For experiment [2], the system named is HCT-116 cells. In words: Cell cycle analysis with propidium iodide (FACS). Format: cell-based, human. Particulars: HCT-116, PI FACS. The method, then: The percentage of cells in the G1, S and G2/M phases of the cell cycle was determined by staining DNA with propidium iodide and quantifying the number of cells with a 2N or 4N DNA complement by flow cytometry. Alterations in the distribution of cells across the cell cycle in response to exposure to the Cdk inhibitors was evaluated in this manner.
3 sets of HCT-116 cells (100,000 cells/set) were cultured in the presence of a test compound in T-25 flasks according to Table 1 below. Analysis was performed at 24, 48 and 72 hours. Adherent cells were collected by trypsinization, combined with floating cells in Falcon 12×75 flow cytometric tubes, and harvested by centrifugation. The media was decanted from the cell pellet, 100 μl of PI stain was added and the cells were incubated at 37° C. for 20-25 minutes. The cell count was preferably no greater than 2×10^6-4×10^6/ml. An equal volume (100 μl) of PI salt was then added to the cells, which were then incubated at 4° C. for 1-2 hours. The stained cells were analyzed on a Becton Dickinson FACScan flow cytometer. Samples were protected from light.

A further experiment concerns the target T1, Cdk4/cyclin D1 (Homo sapiens, UniProt P11802).
T1 construct: made in house; host or cells: Sf9 insect cells
In words: Cdk4/cyclin D1 kinase assay (GST-Rb, glutathione-sepharose capture). Format: biochemical. Particulars: Table 6.
Source text: as §1
(§2) Substrates: Histone H1 was from commercial sources. GST-Rb is glutathione-S-transferase fused to the N-terminal of residues 379-928 of the Rb protein.
Cdk2/cyclin E, Cdk2/cyclin A, Cdk4/cyclin D1, and Cdk6/cyclin D2 activity was determined using a glutathione-sepharose capture assay. […] After washing the retained beads five time with phosphate-buffered saline containing 0.3% (w/v) Tween-20, the amount of ^33P incorporated was determined by scintillation counting after adding 100 μL scintillant. Relative activity was determined by dividing the amount of radioactivity incorporated in the presence of compound by the amount of radioactivity incorporated in a control experiment containing DMSO alone but no compound. The background radioactivity, determined in an experiment containing 50 mM disodium ethylenediamine tetraacetate in place of compound, was subtracted from all results before calculations.

A further experiment concerns the target T2, Cdc2/cyclin B (Homo sapiens, UniProt P06493).
T2 construct: purchased
Description: Cdc2/cyclin B kinase assay (Histone H1, TCA precipitation). Particulars: Table 6. The class given is biochemical.
Source text: as §1, §2
Assays: Cdc2/cyclinB activity was determined by measuring incorporation of radio-activity from adenosine [γ-^32P]triphosphate into Histone H1 using a TCA precipitation assay. Cdc2/cyclin B kinase and Histone H1 were obtained from commercial sources. […] The filter was washed ten times with 25% (w/v) trichloroacetic acid, and the amount of incorporated ^32P was determined by scintillation counting after adding 100 μL scintillant (Microscint 20, Packard Instruments). Relative activity was determined by dividing the amount of radioactivity incorporated in the presence of compound by the amount of radioactivity incorporated in a control experiment containing DMSO alone but no compound. The background radioactivity, determined in an experiment containing 50 mM EDTA in place of compound, was subtracted from all results before calculations. […]

Experiment [3] has as its system HCT-116 cells. In words: Clonogenic survival assay. Format: cell-based, human. Particulars: HCT-116 clonogenic time-course, at 100 nM. The method, then:
This assay was used to determine the concentration of a compound that results irreversible loss of viability after a specified period of exposure. Essentially, cells are exposed to compound for a period of 1, 2 or 5 days, and are then transferred to compound-free growth medium. After continued incubation in the compound-free medium for a number of days, the number of colonies recovered is counted as an estimate of the number of surviving cells.
Media (RPMI-1640, 10% FCS, pen/strep) was pre-warmed to 37° C. in a water bath. Cells were incubated and grown at 37° C., 5% CO2. Cells were recovered by trypsinization from sub-confluent plates and counted using a hemocytometer. 1×10^4 cells were plated in 25 mls of media in a 15 cm tissue culture dish. 14 plates were set up for each test compound, and were incubated overnight at 37° C. The compound was diluted into media at 7 concentrations and the media on the cells was replaced with that containing the test compound. Two plates were set up for each concentration of the compound to be tested, as well as two control plates without compound. […] Colonies were stained with crystal violet solution (0.4% crystal violet, 20% ethanol) for 5 minutes, washed twice with distilled water, and counted.

A further experiment relates to HCT-116. In words: Calcein AM viability assay, HCT-116. The class given is cell-based. Conditions: Homo sapiens, HCT-116, non-protein adjusted, Table 6. The protocol:
The potency of Cdk inhibitors, as measured by loss of cellular viability, was determined with the Calcein AM assay (Molecular Probes). Calcein AM is a substrate of intracellular esterases, which is cleaved only in viable cells to generate a fluorescent product that can be quantified with a fluorescent plate reader. The fluorescent signal is proportional to the number of viable cells, and thus loss of signal in response to the exposure of cells to Cdk inhibitors correlates with a loss of viability. This assay can distinguish cell cycle arrest, in which cells may still by viable, from loss of viability and is thus well suited for the evaluation of Cdk inhibitors. A compound that is a potent cytotoxic, may cause significant loss of cell viability in such assay.
Cellular IC50's were determined in the human colorectal carcinoma cell line, HCT-116, and the normal human fibroblast, IMR90. Protein adjusted IC50's were also determined in HCT-116.
HCT-116 or IMR90 cells were recovered from sub-confluent plates by trypsinization and 1,000 or 4,000 cells, respectively, were plated in 24-well dishes and incubated overnight at 37° C., 5% CO2. HCT-116 cells were cultured in RPMI-1640, 10% FCS, and IMR90 cells were cultured in Minimum Essential Medium-alpha, 10% FCS. After overnight incubation to allow adherence, the media was aspirated from each well and replaced with media containing a test compound at a concentration from 0 to 250 nM, spanning a total of 7 doses. The plates were returned to the incubator and cultured for an additional 72 hours (3 days). […] After 72-hours incubation with the test compound, the cells were washed twice with 1×PBS, taking special care to remove all residual buffer.
A 5 μM Calcein AM solution was prepared by dissolving a 50 μg aliquot of Calcein (Molecular Probes catalog # C3100) in 50 μl DMSO. After the Calcein had completely dissolved (10 minutes at room temperature), it was diluted into 10 ml PBS. Calcein/PBS (0.5 ml) was added to each well. The plates were incubated for 75 minutes at 37° C. (protected from light) and the fluorescent signal was read on a fluorescent plate reader (excitation 485/20 and emission 530/25).

T1 sequence (P11802 whole entry, species assumed): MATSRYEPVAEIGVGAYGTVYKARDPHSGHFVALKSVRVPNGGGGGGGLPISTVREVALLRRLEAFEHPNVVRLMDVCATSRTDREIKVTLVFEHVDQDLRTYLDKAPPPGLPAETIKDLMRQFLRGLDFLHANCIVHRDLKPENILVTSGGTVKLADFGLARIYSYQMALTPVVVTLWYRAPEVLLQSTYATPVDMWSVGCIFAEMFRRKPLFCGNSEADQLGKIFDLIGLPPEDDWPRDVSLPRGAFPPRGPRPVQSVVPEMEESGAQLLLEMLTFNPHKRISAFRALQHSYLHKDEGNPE
T1 sequence (P24385 whole entry partner, species assumed): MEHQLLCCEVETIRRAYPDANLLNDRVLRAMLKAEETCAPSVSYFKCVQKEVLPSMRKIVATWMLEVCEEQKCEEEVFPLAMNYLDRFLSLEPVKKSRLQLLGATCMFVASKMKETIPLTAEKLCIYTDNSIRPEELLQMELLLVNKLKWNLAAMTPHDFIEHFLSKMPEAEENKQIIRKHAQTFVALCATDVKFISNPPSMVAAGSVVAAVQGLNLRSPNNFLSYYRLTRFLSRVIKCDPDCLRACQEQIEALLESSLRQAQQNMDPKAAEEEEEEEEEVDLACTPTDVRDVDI
T2 sequence (P06493 whole entry, species assumed): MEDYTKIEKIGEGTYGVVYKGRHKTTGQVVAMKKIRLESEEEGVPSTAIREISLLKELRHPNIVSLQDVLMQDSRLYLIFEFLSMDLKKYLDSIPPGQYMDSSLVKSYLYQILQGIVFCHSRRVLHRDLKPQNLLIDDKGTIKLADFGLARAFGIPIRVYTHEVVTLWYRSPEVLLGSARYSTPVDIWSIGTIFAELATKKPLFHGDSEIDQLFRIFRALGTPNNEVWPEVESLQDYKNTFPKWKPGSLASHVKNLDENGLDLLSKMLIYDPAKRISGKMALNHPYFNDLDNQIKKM
T2 sequence (P14635 whole entry partner, species assumed): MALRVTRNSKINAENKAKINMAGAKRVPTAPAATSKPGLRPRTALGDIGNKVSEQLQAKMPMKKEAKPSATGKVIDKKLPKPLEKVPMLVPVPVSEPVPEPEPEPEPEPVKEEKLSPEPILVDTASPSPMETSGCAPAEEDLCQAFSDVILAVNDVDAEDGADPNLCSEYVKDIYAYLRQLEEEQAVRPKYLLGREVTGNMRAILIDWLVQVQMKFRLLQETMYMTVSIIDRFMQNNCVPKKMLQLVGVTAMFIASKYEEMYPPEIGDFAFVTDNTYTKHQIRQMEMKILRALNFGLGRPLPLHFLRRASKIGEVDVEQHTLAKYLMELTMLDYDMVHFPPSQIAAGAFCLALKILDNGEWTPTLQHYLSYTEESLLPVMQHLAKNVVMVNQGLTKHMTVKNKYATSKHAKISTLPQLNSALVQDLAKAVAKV

By IC50 is commonly meant the concentration that gives 50% inhibition. Regarding `CC(C)c1nn(-c2c(Cl)cccc2Cl)c2nc(Cc3ccc(O)c(CN4CCN(C(C)C)CC4)c3)[nH]c(=O)c12` [Compound C], in experiment [1], the IC50 was > 10000 nM. In the case of `CC(C)N1CCN(C(=O)COc2ccc(-c3[nH]nc4c3C(=O)c3c(NC(=O)NN5CCOCC5)cccc3-4)cc2)CC1.Cl` [Compound A37], in the experiment with HCT-116 cells [2], the “Effect on cell cycle distribution” value is “terminally arrested in G1 and G2, with evidence of apoptosis and endo-reduplication”.

As for `CC(C)c1nn(-c2c(Cl)cccc2Cl)c2nc(Cc3ccc(OCCOC(=O)[C@@H](N)C(C)C)cc3)[nH]c(=O)c12` [Compound A60], the half-inhibitory concentration (IC50) was < 10000 nM against Cdk4/cyclin D1 and < 1000 nM against Cdc2/cyclin B. Turning to `COCCN1CCN(Cc2ccc(-c3[nH]nc4c3C(=O)c3c(NC(=O)NN5CCOCC5)cccc3-4)cc2)CC1.Cl.Cl` [Compound B16, N-[3-(4-{[4-(2-methoxyethyl)piperazinyl]methyl}phenyl)-4-oxoindeno[2,3-d]pyrazol-5-yl](morpholin-4-ylamino)carboxamide dihydrochloride], in the experiment with HCT-116 cells [2], the “Effect on cell cycle distribution” value is reported as “Analogous results”. Besides, the “Time within which IC50 is reached” value in the experiment on HCT-116 cells [3] is 30 to 60 min. Consider `CC(C)c1nn(-c2c(Cl)cc(Cl)cc2Cl)c2nc(Cc3ccc(OCCO)cc3)[nH]c(=O)c12` [Compound A61], for which the IC50 in the experiment on HCT-116 was < 100 nM. Take `CC(C)c1nn(-c2c(Cl)cccc2Cl)c2nc(Cc3ccc(OCCO)cc3)[nH]c(=O)c12` [Compound A59]: the 50% inhibitory concentration (IC50) with HCT-116 was < 100 nM. Take `CC(C)N1CCN(CCOc2ccc(-c3[nH]nc4c3C(=O)c3c(NC(=O)NN5CCOCC5)cccc3-4)cc2)CC1` [E]: the 50% inhibitory concentration (IC50) in experiment [1] is < 10000 nM. Consider `Cc1nc(Cc2nc3c(c(C(C)C)nn3-c3c(Cl)cccc3Cl)c(=O)[nH]2)cs1` [Compound A58], for which, in the experiment with HCT-116, the IC50 is < 100 nM. Still for that read-out and setting: the result for `CC(C)c1nn(-c2c(Cl)cc(Cl)cc2Cl)c2nc(Cc3ccc(NS(=O)(=O)CCCN4CCN(C(C)C)CC4)cc3)[nH]c(=O)c12` [Compound A39] reads < 100 nM; that for `CC(C)c1nn(-c2c(Cl)cc(Cl)cc2Cl)c2nc(Cc3ccc(NS(=O)(=O)CCCN4CCCC4)cc3)[nH]c(=O)c12` [Compound A38], < 100 nM. Turning to `COc1ccc(Cc2nc3c(c(C(C)C)nn3-c3c(Cl)cccc3Cl)c(=O)[nH]2)cc1` [Compound A67], in the experiment on HCT-116, the IC50 was < 100 nM.
